This passage reports TGI and GI50 results from PubChem BioAssay (NCI).

What all share (test): NCI tumour cell line growth inhibition, 48 h
The test system of experiment [1] is UACC-257 melanoma.
The test system of experiment [2] is CAKI-1 renal.
Experiment [3] has as its system K-562 leukemia.

Structures are written as SMILES.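 Dose response: 5 concentrations. Exposure: 48 h. Format: 96-well plates. Endpoint: linear interpolation; highest concentration if not reached. The concentration for 50% growth inhibition is given as GI50. TGI denotes the concentration required for complete inhibition of growth.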 Where a SMILES comes first, the peptide text is derived from it. The star is where a group is joined. Cbz = O=C(OCc1ccccc1)*

For the compound `COc1cc2ncnc(Nc3cccc(Br)c3)c2cc1OC`, the TGI in experiment [1] is above 40.9 µM; in experiment [2], above 52.1 µM; in experiment [3] it was above 55.5 µM.

Consider `COP(=O)(OC)[C@@](O)(c1ccccc1)[C@@H](O)[C@H](O)c1ccccc1`, for which the TGI in experiment [1], in experiment [2] and in experiment [3] was above 100 µM in each case.

For `COc1ccc(C2c3cc4c(cc3OC(N3CCOCC3)C2C)OCO4)cc1OC` (stereo not given), the TGI in experiment [1] is above 100 µM; in experiment [2] it was 26.4 µM; in experiment [3], above 56.5 µM.

For `CN(C)CCNc1c(O)c2c(c(O)c1Cl)C(=O)C=CC2=O`, the TGI turned out to be 3.09 µM in experiment [1] and 6.66 µM in experiment [3].

For the compound `CCN1CC2=C(OC(N)=C(C#N)C2c2ccc(Cl)cc2)/C(=C/c2ccc(Cl)cc2)C1` (stereo not given), the TGI in experiment [1] was above 100 µM; in experiment [2], 30.5 µM; in experiment [3], above 100 µM.

Turning to `Cc1c2ccccc2c(/C=N/NC(=O)CSCC(=O)N/N=C/c2c3ccccc3c(C)c3ccccc23)c2ccccc12`, the TGI in experiment [1], in experiment [2] and in experiment [3] was above 100 µM in each case.

Turning to `NC(=O)N/N=C(\Cc1cc(=O)oc2cc(O)ccc12)C(=O)Nc1ccccc1C(N)=O`, the TGI in experiment [1] and in experiment [2] was above 100 µM in each case.

Turning to `CCCCCCc1cc2cc(C(=O)Nc3nc(C45CC6CC(CC(C6)C4)C5)cs3)c(=O)oc2cc1O`, the TGI stood at 68 µM in experiment [1], 30.1 µM in experiment [2] and 11 µM in experiment [3].

On to `COc1nc2ncc([C@@H](OC(C)=O)[C@@H](COC(C)=O)OC(C)=O)nc2c(=O)n1C`, for which the TGI in experiment [1], in experiment [2] and in experiment [3] was above 100 µM each time.

As to `CCCCOc1ccc(/C=C/C2=[N+](CCO)CCO2)cc1`, the results for the TGI in experiment [1], in experiment [2] and in experiment [3] were above 100 µM, above 100 µM and 66.5 µM, respectively.

Take `O=[N+]([O-])C1=Cc2c(O)ccc(O)c2C2OC=CC12` (stereo not given): the TGI in experiment [1] was 29.9 µM; in experiment [2] it was 25.8 µM; in experiment [3], above 100 µM.

`COC(=O)C12CCCN1CCC2`: the TGI in experiment [1], in experiment [2] and in experiment [3] was above 100 µM each time.

As to `CCOP(=O)(OCC)/C(C#N)=C/c1nc[nH]c1C`, the TGI in experiment [1], in experiment [2] and in experiment [3] was above 100 µM in each case.

For the compound `Cn1c2ccccc2n2c(=O)c(-c3ccc(Cl)cc3)nnc12`, the TGI in experiment [1] and in experiment [2] was above 100 µM in each case.

`CC(C)(C)c1ccc(O)c(C(O)c2ccccn2)c1` (stereo not given): the TGI in experiment [2] and in experiment [3] was above 100 µM each time.

Turning to `C/C(=N/NC(=S)N1CCCCCC1)c1cccc(/C(C)=N\NC(=S)N2CCCCCC2)n1`, the figures for the TGI in experiment [1] and in experiment [3] were 3.45 µM and 6.58 µM, respectively.

With `CC(C)(C)OC(=O)C1C(=O)NC(=O)CC1C(OCc1ccccc1)C(OCc1ccccc1)C(COCc1ccccc1)OCc1ccccc1` (stereo not given), the TGI in experiment [1] and in experiment [3] was above 100 µM each time.

Regarding `Nc1nc(N)c2cc(-c3cc4ccccc4[nH]3)ccc2n1`, the TGI came to 35.1 µM in experiment [1] and 94.9 µM in experiment [2].

On to `C[C@]12CC[C@H]3[C@@H](CC=C4C[C@@H](N5CCCC5)CC[C@@]43C)[C@@H]1C/C(=C\c1ccc([N+](=O)[O-])cc1)[C@@H]2O`, for which the TGI in experiment [1] amounted to 31.5 µM; in experiment [2], 27.6 µM.

Turning to `O=C(O)CSC1=NCCN1`, the TGI in experiment [2] and in experiment [3] was above 100 µM throughout.

On to `COc1ccc(-c2nc(-c3nc4cc(Cl)c(Cl)cc4[nH]3)c3ccccn23)cc1`, for which, in experiment [1], the GI50 was 5.77 µM and the TGI was above 100 µM. In experiment [2], the GI50 was 3.32 µM and the TGI is above 100 µM.

Compound `Cc1ccc(S(=O)(=O)N(CC(O)COc2ccccc2)c2c(F)c(F)c(F)c(F)c2F)cc1` (stereo not given) gave a TGI in experiment [2] of 26.7 µM.

For the compound `COC(=O)/C(=C(/C)c1ccco1)P(=O)(OC)OC`, the TGI in experiment [1] and in experiment [2] was above 100 µM in each case.

As for `CCOC(=O)c1nc2ccccc2nc1Nc1cc(OC)c(OC)c(OC)c1`, the TGI in experiment [2] and in experiment [3] was above 100 µM throughout.

Take `CCOC(=O)CCC(NC(=O)C(CC(=O)OC)NC(=O)OCc1ccccc1)C(=O)NC(CC(=O)OC)C(=O)NC(CCC(=O)OCC)C(=O)NC(CC(=O)OC)C(=O)NC(CCC(=O)OCC)C(=O)NC(CC(=O)OCC)C(=O)OCC` (stereo not given) (Cbz-D(OMe)E(OEt)D(OMe)E(OEt)D(OMe)E(OEt)D(OEt)-OEt; configuration not given here): the TGI in experiment [1] and in experiment [3] was above 100 µM each time.

Turning to `Cc1cc(C)c2c(-c3ccccc3)cc(=O)[nH]c2c1`, the TGI in experiment [1] and in experiment [3] was above 100 µM in each case.

As to `Cc1cccc(-c2cc(=O)c3cccnc3[nH]2)c1`, the TGI in experiment [3] was above 100 µM.
